Laboratory results as given in PubChem BioAssay AID192 (DTP/NCI, 2004).
Several values for one entry are separate records, joined by “and”; a condition that tells them apart may be missing. Equal values may be shown once. Inconclusive results and toxic doses are left out. The calls were made as follows: active = survival T/C of 150% or more; inactive = T/C below 125% in these data.

Tested on: BDF1 mice, B16 melanoma ip, median survival T/C
Assay: NCI In Vivo Anticancer Drug Screen. Data for tumor model B16 Melanoma (intraperitoneal) in B6D2F1 (BDF1) mice
Conditions: endpoint: median survival time, higher = longer survival
How it was run: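 Transplantable tumor model; survival or tumor size measured; reported as T/C, treated over vehicle control.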

[1] = dose: 4.0 mg/kg/injection, schedule: Q01DX009 (ip), vehicle: saline with Tween-80
[2] = dose: 50.0 mg/kg/injection, schedule: Q01DX009 (ip), vehicle: saline
[3] = dose: 100.0 mg/kg/injection, schedule: Q01DX009 (ip), vehicle: saline
[4] = dose: 200.0 mg/kg/injection, schedule: Q01DX009 (ip), vehicle: saline
[5] = dose: 6.25 mg/kg/injection, schedule: Q01DX009 (ip), vehicle: Klucel (hydroxypropylcellulose) (HPC)
[6] = dose: 12.5 mg/kg/injection, schedule: Q01DX009 (ip), vehicle: Klucel (hydroxypropylcellulose) (HPC)
[7] = dose: 25.0 mg/kg/injection, schedule: Q01DX009 (ip), vehicle: Klucel (hydroxypropylcellulose) (HPC)
[8] = dose: 50.0 mg/kg/injection, schedule: Q01DX009 (ip), vehicle: Klucel (hydroxypropylcellulose) (HPC)
[9] = dose: 100.0 mg/kg/injection, schedule: Q01DX009 (ip), vehicle: Klucel (hydroxypropylcellulose) (HPC)
[10] = dose: 200.0 mg/kg/injection, schedule: Q01DX009 (ip), vehicle: Klucel (hydroxypropylcellulose) (HPC)
[11] = dose: 50.0 mg/kg/injection, schedule: Q01DX009 (ip), vehicle: saline with Tween-80
[12] = dose: 25.0 mg/kg/injection, schedule: Q01DX009 (ip), vehicle: saline with Tween-80
[13] = dose: 100.0 mg/kg/injection, schedule: Q01DX009 (ip), vehicle: saline with Tween-80
[14] = dose: 100.0 mg/kg/injection, schedule: Q04DX003 (ip), vehicle: Klucel (hydroxypropylcellulose) (HPC)
[15] = dose: 200.0 mg/kg/injection, schedule: Q04DX003 (ip), vehicle: Klucel (hydroxypropylcellulose) (HPC)
[16] = dose: 400.0 mg/kg/injection, schedule: Q01DX009 (ip), vehicle: Klucel (hydroxypropylcellulose) (HPC)

Measured: T/C

C=C(C)[C@H]1Cc2c(ccc3c2O[C@@H]2COc4cc(OC)c(OC)cc4[C@@H]2C3=O)O1
inactive: [1] 92 % of control and 99 % of control | dose: 8.0 mg/kg/injection, schedule: Q01DX009 (ip), vehicle: saline with Tween-80 105 % of control | dose: 16.0 mg/kg/injection, schedule: Q01DX009 (ip), vehicle: saline with Tween-80 98 % of control

N=C(N)SCc1cccc2c(=O)cc(-c3ccccc3)oc12
inactive: [2] 101 % of control | [3] 111 % of control | [4] 86 % of control

COc1c(CNC(=O)CCl)cc2[nH]c(C)cc2c1CNC(=O)CCl
inactive: [5] 101 % of control | [6] 106 % of control | [7] 103 % of control | [8] 104 % of control | [9] 108 % of control | [10] 97 % of control

O=C(NCCCN1CCOCC1)C(Oc1ccccc1)Oc1ccccc1
inactive: dose: 0.09 mg/kg/injection, schedule: Q01DX009 (ip), vehicle: Klucel (hydroxypropylcellulose) (HPC) 88 % of control | dose: 0.19 mg/kg/injection, schedule: Q01DX009 (ip), vehicle: Klucel (hydroxypropylcellulose) (HPC) 92 % of control | dose: 0.78 mg/kg/injection, schedule: Q01DX009 (ip), vehicle: Klucel (hydroxypropylcellulose) (HPC) 87 % of control | dose: 1.56 mg/kg/injection, schedule: Q01DX009 (ip), vehicle: Klucel (hydroxypropylcellulose) (HPC) 88 % of control | [6] 92 % of control | [7] 86 % of control and 103 % of control | [8] 90 % of control

COc1ccc(C(=S)N2CCN(c3ccccc3)CC2)cc1
inactive: dose: 12.5 mg/kg/injection, schedule: Q01DX009 (ip), vehicle: saline with Tween-80 87 % of control | [11] 99 % of control | dose: 200.0 mg/kg/injection, schedule: Q01DX009 (ip), vehicle: saline with Tween-80 87 % of control

CNCCN(C)CCN(C)Cc1ccc(OC)cc1
inactive: [2] 103 % of control | [3] 106 % of control | [4] 106 % of control

COCCOCCN1CCN(CCCN2c3ccccc3Sc3ccc(C(F)(F)F)cc32)CC1
inactive: dose: 0.31 mg/kg/injection, schedule: Q01DX009 (ip), vehicle: saline 106 % of control | dose: 0.62 mg/kg/injection, schedule: Q01DX009 (ip), vehicle: saline 101 % of control | dose: 1.25 mg/kg/injection, schedule: Q01DX009 (ip), vehicle: saline 108 % of control | dose: 2.5 mg/kg/injection, schedule: Q01DX009 (ip), vehicle: saline 100 % of control

CCCC(C(=O)O)C1=CCCC1 (centres undefined)
inactive: [12] 115 % of control | [11] 112 % of control | [13] 103 % of control

NC(=S)N/N=C/c1ccc(OC(=O)COc2ccc(Cl)cc2)cn1
inactive: [12] 111 % of control | [11] 116 % of control | [13] 117 % of control

c1ccc(C2=C([P+](c3ccccc3)(c3ccccc3)c3ccccc3)CCO2)cc1
inactive: dose: 6.0 mg/kg/injection, schedule: Q01DX009 (ip), vehicle: saline 116 % of control | dose: 6.25 mg/kg/injection, schedule: Q01DX009 (ip), vehicle: saline 105 % of control

CCCCNC(=O)Nc1ccccc1CC
inactive: [14] 110 % of control | [15] 103 % of control | dose: 400.0 mg/kg/injection, schedule: Q04DX003 (ip), vehicle: Klucel (hydroxypropylcellulose) (HPC) 96 % of control

COCC(=O)CC(C)=O
inactive: dose: 75.0 mg/kg/injection, schedule: Q01DX009 (ip), vehicle: Klucel (hydroxypropylcellulose) (HPC) 122 % of control | dose: 150.0 mg/kg/injection, schedule: Q01DX009 (ip), vehicle: Klucel (hydroxypropylcellulose) (HPC) 113 % of control | dose: 300.0 mg/kg/injection, schedule: Q01DX009 (ip), vehicle: Klucel (hydroxypropylcellulose) (HPC) 105 % of control

NC(=O)c1ncn(C2OC(CO)C(O)C2O)n1 (centres undefined)
inactive: dose: 20.0 mg/kg/injection, schedule: Q01DX009 (ip), vehicle: saline 90 % of control | dose: 40.0 mg/kg/injection, schedule: Q01DX009 (ip), vehicle: saline 102 % of control | dose: 50.0 mg/kg/injection, schedule: Q04DX003 (ip), vehicle: Klucel (hydroxypropylcellulose) (HPC) 102 % of control | dose: 80.0 mg/kg/injection, schedule: Q01DX009 (ip), vehicle: saline 97 % of control | [14] 95 % of control | dose: 160.0 mg/kg/injection, schedule: Q01DX009 (ip), vehicle: saline 108 % of control | [15] 98 % of control

CCCCNC(=S)N/N=C/c1ccccn1
inactive: [12] 102 % of control | [11] 99 % of control | [13] 104 % of control

S=c1[nH]nc(NC2CCCCC2)s1
inactive: [7] 97 % of control | [8] 91 % of control | [14] 97 % of control | [15] 91 % of control

CCC(C)(O)CCc1ccccc1 (centres undefined)
inactive: [9] 113 % of control | [10] 113 % of control | [16] 100 % of control

O=[N+]([O-])/C=C/C(Cl)(Cl)Cl
inactive: [5] 100 % of control | [6] 96 % of control

CCOC(=O)C(=Cc1ccc(Cl)cc1)C(=O)OCC
inactive: [6] 94 % of control | [8] 94 % of control | [9] 89 % of control

CC(=O)OC1C2CCC(C2)C1C (centres undefined)
inactive: dose: 100.0 mg/kg/injection, schedule: Q04DX003 (ip), vehicle: saline with Tween-80 105 % of control | dose: 200.0 mg/kg/injection, schedule: Q04DX003 (ip), vehicle: saline with Tween-80 100 % of control | dose: 400.0 mg/kg/injection, schedule: Q04DX003 (ip), vehicle: saline with Tween-80 97 % of control

C/C=C(\C)C(=O)OC1C(C)=C2C(C1OC(=O)CCCC)C(C)(OC(C)=O)CC(OC(=O)CCCC)C1(O)C2OC(=O)C1(C)O (centres undefined)
inactive: dose: 0.37 mg/kg/injection, schedule: Q01DX009 (ip), vehicle: Klucel (hydroxypropylcellulose) (HPC) 90 % of control | dose: 0.75 mg/kg/injection, schedule: Q01DX009 (ip), vehicle: Klucel (hydroxypropylcellulose) (HPC) 101 % of control | dose: 1.5 mg/kg/injection, schedule: Q01DX009 (ip), vehicle: Klucel (hydroxypropylcellulose) (HPC) 106 % of control | dose: 3.0 mg/kg/injection, schedule: Q01DX009 (ip), vehicle: Klucel (hydroxypropylcellulose) (HPC) 89 % of control

c1ccc(N/N=C2/CCN3CCCc4cccc2c43)cc1
inactive: dose: 25.0 micrograms/kg/injection, schedule: Q01DX009 (ip), vehicle: DMSO 86 % of control

C/C(=N/NC(=O)c1ccccc1)c1ccccc1O
inactive: dose: 100.0 mg/kg/injection, schedule: Q04DX003 (ip), vehicle: gum acacia 93 % of control | dose: 200.0 mg/kg/injection, schedule: Q04DX003 (ip), vehicle: gum acacia 95 % of control | dose: 400.0 mg/kg/injection, schedule: Q04DX003 (ip), vehicle: gum acacia 93 % of control

CCNC(=O)OCc1c(COC(=O)NCC)c(-c2ccc(Cl)c(Cl)c2)n2c1CCC2
inactive: dose: 6.25 mg/kg/injection, schedule: Q01DX009 (ip), vehicle: saline with Tween-80 122 % of control | [12] 90 % of control

CC(=O)N(C)N(Cc1ccc(C#N)cc1)C(C)=O
inactive: [7] 98 % of control | [8] 96 % of control | [9] 99 % of control | [10] 98 % of control | [16] 95 % of control

CCCCCCCCCCCC1=NCCN1
inactive: dose: 3.0 mg/kg/injection, schedule: Q01DX009 (ip), vehicle: saline with Tween-80 94 % of control | dose: 6.0 mg/kg/injection, schedule: Q01DX009 (ip), vehicle: saline with Tween-80 97 % of control | dose: 12.0 mg/kg/injection, schedule: Q01DX009 (ip), vehicle: saline with Tween-80 88 % of control

COc1ccc(Br)cc1
inactive: [11] 100 % of control | [13] 104 % of control

CCC(C)(C[NH-])C[NH-].[Cl][Pt+2][Cl]
active: dose: 0.5 mg/kg/injection, schedule: Q01DX009 (ip), vehicle: carboxymethylcellulose (CMC) 159 % of control | dose: 1.0 mg/kg/injection, schedule: Q01DX009 (ip), vehicle: carboxymethylcellulose (CMC) 180 % of control

COc1cc(C2c3cc4c(cc3CC3COC(=O)C32)OCO4)cc(OC)c1O (centres undefined)
inactive: dose: 0.5 mg/kg/injection, schedule: Q01DX009 (ip), vehicle: saline with Tween-80 98 % of control | dose: 1.0 mg/kg/injection, schedule: Q01DX009 (ip), vehicle: saline with Tween-80 104 % of control | dose: 2.0 mg/kg/injection, schedule: Q01DX009 (ip), vehicle: saline with Tween-80 123 % of control | [1] 106 % of control

CC1CCN(c2ccc([N+](=O)[O-])cc2)CC1
inactive: [9] 106 % of control | [10] 87 % of control | [16] 96 % of control

CCCCNC(=O)Nc1cc(C)ccc1C
inactive: [9] 100 % of control | [10] 100 % of control
